From the supplement of paper PMC8612539

Legend:
Mannheimia haemolytica = test: minimum inhibitory concentration (MIC)
Protocol: (§1)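 Broth microdilution MIC (Sensititre BOPO7F bovine plate, CLSI methods) of 19 antimicrobials against field isolates of P. multocida, M. haemolytica, H. somni (deep nasopharyngeal swabs) and E. coli, Enterococcus spp. (rectal swabs) from weaned dairy heifers. Incubation 16-24 h at 35 C. MIC is the lowest concentration preventing visible growth. Values with <= or > lie at the tested range limits. Trimethoprim-sulfamethoxazole is given as the trimethoprim component of a 1:19 mixture.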

Enterococcus spp. = test: minimum inhibitory concentration (MIC)
Protocol: as §1

COc1cc(NS(=O)(=O)c2ccc(N)cc2)nc(OC)n1 [sulfadimethoxine]
minimum inhibitory concentration [µg/mL]
Details	Enterococcus spp.	Mannheimia haemolytica
isolate (source animal id): 2	> 256	–
isolate (source animal id): 35	> 256	–
isolate (source animal id): 42	> 256	–
isolate (source animal id): 44	> 256	–
isolate (source animal id): 79	> 256	–
isolate (source animal id): 88	> 256	–
isolate (source animal id): 91	> 256	–
isolate (source animal id): 92	> 256	–
isolate (source animal id): 111	> 256	–
isolate (source animal id): 122	> 256	–
isolate (source animal id): 123	> 256	–
isolate (source animal id): 133	> 256	–
isolate (source animal id): 158	> 256	–
isolate (source animal id): 168	> 256	–
isolate (source animal id): 169	> 256	–
isolate (source animal id): 171	> 256	–
isolate (source animal id): 175	> 256	–
isolate (source animal id): 177	> 256	–
isolate (source animal id): 181	> 256	–
isolate (source animal id): 182	> 256	–
isolate (source animal id): 183	> 256	–
isolate (source animal id): 187	> 256	–
isolate (source animal id): 190	> 256	–
isolate (source animal id): 194	> 256	–
isolate (source animal id): 195	> 256	–
isolate (source animal id): 197	> 256	–
isolate (source animal id): 211	> 256	–
isolate (source animal id): 214	> 256	–
isolate (source animal id): 222	> 256	–
isolate (source animal id): 223	> 256	–
isolate (source animal id): 228	> 256	–
isolate (source animal id): 230	> 256	–
isolate (source animal id): 235	> 256	–
isolate (source animal id): 236	> 256	–
isolate (source animal id): 239	> 256	–
isolate (source animal id): 241	> 256	–
isolate (source animal id): 244	> 256	–
isolate (source animal id): 246	> 256	–
isolate (source animal id): 247	> 256	–
isolate (source animal id): 250	> 256	–
isolate (source animal id): 252	> 256	–
isolate (source animal id): 268	> 256	–
isolate (source animal id): 282	> 256	–
isolate (source animal id): 285	> 256	–
isolate (source animal id): 288	–	> 256
isolate (source animal id): 289	> 256	–
isolate (source animal id): 290	> 256	–
isolate (source animal id): 291	–	≤ 256
isolate (source animal id): 293	–	> 256
isolate (source animal id): 296	> 256	–
isolate (source animal id): 298	> 256	> 256
isolate (source animal id): 299	–	> 256
isolate (source animal id): 300	–	≤ 256
isolate (source animal id): 301	> 256	–
isolate (source animal id): 302	–	> 256
isolate (source animal id): 304	–	> 256
isolate (source animal id): 306	–	> 256
isolate (source animal id): 308	–	≤ 256
isolate (source animal id): 309	–	≤ 256
isolate (source animal id): 310	> 256	–
isolate (source animal id): 313	–	> 256
isolate (source animal id): 318	–	> 256
isolate (source animal id): 320	> 256	≤ 256
isolate (source animal id): 321	–	> 256
isolate (source animal id): 323	–	> 256
isolate (source animal id): 324	–	> 256
isolate (source animal id): 326	–	> 256
isolate (source animal id): 328	–	> 256
isolate (source animal id): 329	–	> 256
isolate (source animal id): 331	> 256	–
isolate (source animal id): 333	> 256	> 256
isolate (source animal id): 335	–	> 256
isolate (source animal id): 338	–	> 256
isolate (source animal id): 341	> 256	–
